Assay results taken from ChEMBL document CHEMBL5291721, “A preclinical secondary pharmacology resource illuminates target-adverse drug reaction associations of marketed drugs” (Nat Commun, 2023).

Assays:
[1] = molecular target: Beta-1 adrenergic receptor (Homo sapiens, UniProt P08588); type: functional
Thromboxane A2 receptor = molecular target: T1, Thromboxane A2 receptor (Homo sapiens, UniProt P21731)
T1 sequence (P21731 whole entry): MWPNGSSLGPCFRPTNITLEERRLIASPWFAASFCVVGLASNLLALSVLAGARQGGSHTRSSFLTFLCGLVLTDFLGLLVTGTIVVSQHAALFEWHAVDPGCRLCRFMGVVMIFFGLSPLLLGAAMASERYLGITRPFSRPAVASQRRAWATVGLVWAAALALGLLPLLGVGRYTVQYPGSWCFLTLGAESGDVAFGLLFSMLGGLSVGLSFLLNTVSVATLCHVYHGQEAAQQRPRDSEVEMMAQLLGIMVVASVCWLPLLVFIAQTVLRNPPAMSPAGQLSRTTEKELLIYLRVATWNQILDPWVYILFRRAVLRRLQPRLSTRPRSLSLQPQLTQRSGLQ

[2] = molecular target: T2, Alpha-2B adrenergic receptor (Homo sapiens, UniProt P18089)
T2 sequence (P18089 whole entry): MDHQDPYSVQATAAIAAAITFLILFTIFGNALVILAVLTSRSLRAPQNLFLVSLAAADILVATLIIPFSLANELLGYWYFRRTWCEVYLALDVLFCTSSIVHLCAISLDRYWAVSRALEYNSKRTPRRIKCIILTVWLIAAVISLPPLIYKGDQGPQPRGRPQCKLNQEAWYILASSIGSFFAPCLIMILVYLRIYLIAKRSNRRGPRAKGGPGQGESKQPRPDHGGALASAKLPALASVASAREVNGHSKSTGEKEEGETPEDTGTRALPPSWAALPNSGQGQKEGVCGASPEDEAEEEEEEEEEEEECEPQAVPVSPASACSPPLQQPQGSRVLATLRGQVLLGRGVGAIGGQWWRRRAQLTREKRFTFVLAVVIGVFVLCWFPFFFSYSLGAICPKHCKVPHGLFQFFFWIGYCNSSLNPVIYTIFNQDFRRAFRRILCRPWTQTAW

Adenosine receptor A1 = molecular target: T3, Adenosine receptor A1 (Homo sapiens, UniProt P30542)
T3 sequence (P30542 whole entry): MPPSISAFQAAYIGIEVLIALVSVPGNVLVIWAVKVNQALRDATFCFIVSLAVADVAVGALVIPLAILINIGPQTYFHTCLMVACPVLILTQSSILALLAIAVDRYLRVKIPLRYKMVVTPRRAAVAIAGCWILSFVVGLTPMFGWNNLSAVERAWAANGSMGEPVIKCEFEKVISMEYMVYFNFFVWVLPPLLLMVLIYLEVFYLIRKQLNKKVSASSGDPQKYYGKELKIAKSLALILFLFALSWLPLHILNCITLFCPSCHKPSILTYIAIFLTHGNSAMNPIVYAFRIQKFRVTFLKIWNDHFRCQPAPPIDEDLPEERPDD

[3] = molecular target: Growth hormone secretagogue receptor type 1 (Homo sapiens, UniProt Q92847)
[4] = molecular target: T4, Alpha-2A adrenergic receptor (Homo sapiens, UniProt P08913); type: functional, cell-based
T4 sequence (P08913 whole entry): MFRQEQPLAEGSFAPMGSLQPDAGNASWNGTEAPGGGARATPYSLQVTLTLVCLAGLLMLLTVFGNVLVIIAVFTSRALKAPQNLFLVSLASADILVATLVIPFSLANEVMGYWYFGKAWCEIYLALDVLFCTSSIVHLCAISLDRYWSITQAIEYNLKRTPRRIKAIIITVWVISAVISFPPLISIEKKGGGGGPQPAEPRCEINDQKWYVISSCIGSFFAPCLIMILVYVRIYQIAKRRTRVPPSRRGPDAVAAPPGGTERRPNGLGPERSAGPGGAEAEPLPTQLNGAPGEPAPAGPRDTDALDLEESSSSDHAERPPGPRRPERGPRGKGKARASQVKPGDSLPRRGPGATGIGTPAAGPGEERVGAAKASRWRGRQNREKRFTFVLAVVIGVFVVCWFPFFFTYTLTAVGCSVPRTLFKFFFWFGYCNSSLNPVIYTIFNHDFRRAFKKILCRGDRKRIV

[5] = molecular target: T5, Cholecystokinin receptor type A (Homo sapiens, UniProt P32238)
T5 sequence (P32238 whole entry): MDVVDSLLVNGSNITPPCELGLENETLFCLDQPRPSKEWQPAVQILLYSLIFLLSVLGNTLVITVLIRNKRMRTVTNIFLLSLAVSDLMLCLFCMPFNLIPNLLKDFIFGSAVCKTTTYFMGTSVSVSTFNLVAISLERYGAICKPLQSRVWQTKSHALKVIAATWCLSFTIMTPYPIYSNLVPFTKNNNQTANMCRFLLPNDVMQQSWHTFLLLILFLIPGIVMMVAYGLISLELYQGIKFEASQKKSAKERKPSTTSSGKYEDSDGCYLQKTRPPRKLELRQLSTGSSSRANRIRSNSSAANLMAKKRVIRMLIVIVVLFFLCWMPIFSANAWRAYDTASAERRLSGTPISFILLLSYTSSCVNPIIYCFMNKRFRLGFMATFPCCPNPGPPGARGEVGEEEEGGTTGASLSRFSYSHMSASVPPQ

[6] = molecular target: 3',5'-cyclic-AMP phosphodiesterase 4D (Homo sapiens, UniProt Q08499); type: functional
Adenosine receptor A2a = Adenosine receptor A2a (Homo sapiens, UniProt P29274)
[7] = molecular target: Glutamate receptor ionotropic, NMDA 1 (Rattus norvegicus, UniProt P35439)
[8] = molecular target: Beta-2 adrenergic receptor (Homo sapiens, UniProt P07550); type: functional, cell-based
Also: assay procedure not described here.

Beta-1 adrenergic receptor, sequence (P08588 whole entry): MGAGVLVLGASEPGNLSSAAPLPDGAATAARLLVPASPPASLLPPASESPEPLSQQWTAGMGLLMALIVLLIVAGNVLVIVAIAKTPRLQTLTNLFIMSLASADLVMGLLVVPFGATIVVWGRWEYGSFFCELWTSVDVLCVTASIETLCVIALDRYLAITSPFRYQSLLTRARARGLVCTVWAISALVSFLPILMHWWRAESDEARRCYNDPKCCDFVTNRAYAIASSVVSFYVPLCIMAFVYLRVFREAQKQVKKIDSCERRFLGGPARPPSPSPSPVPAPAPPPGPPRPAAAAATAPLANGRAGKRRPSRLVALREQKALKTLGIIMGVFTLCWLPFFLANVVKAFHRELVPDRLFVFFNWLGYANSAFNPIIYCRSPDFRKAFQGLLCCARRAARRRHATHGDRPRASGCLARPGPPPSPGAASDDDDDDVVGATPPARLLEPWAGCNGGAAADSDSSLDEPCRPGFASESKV
3',5'-cyclic-AMP phosphodiesterase 4D, sequence (Q08499 whole entry): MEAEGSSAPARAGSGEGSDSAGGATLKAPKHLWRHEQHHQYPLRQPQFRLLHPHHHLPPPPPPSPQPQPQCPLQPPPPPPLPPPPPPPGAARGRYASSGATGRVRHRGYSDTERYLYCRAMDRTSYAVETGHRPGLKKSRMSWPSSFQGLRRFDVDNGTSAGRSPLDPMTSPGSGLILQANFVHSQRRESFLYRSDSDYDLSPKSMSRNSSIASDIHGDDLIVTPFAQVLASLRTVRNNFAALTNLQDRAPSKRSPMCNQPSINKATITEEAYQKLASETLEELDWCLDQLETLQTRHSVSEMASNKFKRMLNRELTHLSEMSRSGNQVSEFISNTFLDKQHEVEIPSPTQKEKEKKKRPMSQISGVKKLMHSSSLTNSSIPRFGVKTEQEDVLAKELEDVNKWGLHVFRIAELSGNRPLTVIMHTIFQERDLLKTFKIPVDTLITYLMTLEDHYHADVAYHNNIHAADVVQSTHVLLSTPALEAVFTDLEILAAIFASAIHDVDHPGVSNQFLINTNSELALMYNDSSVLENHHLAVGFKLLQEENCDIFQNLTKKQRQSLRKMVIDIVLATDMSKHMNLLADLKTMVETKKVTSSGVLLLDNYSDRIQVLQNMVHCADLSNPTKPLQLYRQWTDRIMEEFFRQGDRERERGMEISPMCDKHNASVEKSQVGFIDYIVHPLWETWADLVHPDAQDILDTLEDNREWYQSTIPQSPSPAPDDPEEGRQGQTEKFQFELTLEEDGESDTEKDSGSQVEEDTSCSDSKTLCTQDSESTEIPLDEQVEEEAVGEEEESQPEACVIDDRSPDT
Adenosine receptor A2a, sequence (P29274 whole entry): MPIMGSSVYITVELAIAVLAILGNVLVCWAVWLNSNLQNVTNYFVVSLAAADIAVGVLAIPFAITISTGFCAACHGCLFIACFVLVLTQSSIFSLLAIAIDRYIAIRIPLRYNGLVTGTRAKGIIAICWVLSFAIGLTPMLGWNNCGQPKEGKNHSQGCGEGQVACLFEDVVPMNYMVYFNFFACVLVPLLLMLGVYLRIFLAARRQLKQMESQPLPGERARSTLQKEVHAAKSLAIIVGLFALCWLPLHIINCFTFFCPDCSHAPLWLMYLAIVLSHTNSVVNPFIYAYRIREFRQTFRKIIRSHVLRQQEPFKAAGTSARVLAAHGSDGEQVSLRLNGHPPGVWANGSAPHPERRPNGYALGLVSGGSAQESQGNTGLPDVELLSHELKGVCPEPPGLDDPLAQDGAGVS
Growth hormone secretagogue receptor type 1, sequence (Q92847 whole entry): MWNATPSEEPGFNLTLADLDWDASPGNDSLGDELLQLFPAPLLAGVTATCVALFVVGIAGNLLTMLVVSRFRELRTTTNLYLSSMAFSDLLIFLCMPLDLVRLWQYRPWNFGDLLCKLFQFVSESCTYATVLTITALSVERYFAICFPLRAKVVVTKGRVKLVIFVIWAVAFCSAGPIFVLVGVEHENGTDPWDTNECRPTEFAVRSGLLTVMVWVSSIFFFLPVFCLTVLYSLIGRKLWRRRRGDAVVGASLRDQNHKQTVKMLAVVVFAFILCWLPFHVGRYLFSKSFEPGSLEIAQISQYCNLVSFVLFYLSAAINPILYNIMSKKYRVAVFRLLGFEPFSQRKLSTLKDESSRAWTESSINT
Beta-2 adrenergic receptor, sequence (P07550 whole entry): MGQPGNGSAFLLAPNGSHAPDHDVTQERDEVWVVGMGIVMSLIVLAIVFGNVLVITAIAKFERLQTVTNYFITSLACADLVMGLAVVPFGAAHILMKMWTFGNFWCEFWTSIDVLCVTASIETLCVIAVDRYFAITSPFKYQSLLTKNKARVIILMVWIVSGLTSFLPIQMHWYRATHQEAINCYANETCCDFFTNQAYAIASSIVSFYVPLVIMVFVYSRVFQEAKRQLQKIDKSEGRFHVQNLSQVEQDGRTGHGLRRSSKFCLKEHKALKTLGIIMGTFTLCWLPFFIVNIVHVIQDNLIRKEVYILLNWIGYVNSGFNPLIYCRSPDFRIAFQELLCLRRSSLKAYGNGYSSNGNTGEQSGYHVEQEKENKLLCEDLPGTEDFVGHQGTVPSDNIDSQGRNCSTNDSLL

AC50 [1] [µM]	AC50 (Thromboxane A2 receptor) [µM]	AC50 [2] [µM]	AC50 (Adenosine receptor A1) [µM]	AC50 [3] [µM]	AC50 [4] [µM]	AC50 [5] [µM]	AC50 [6] [µM]	AC50 (Adenosine receptor A2a) [µM]	AC50 [7] [µM]	AC50 [8] [µM]	Compound
> 30	> 30	> 30	> 30	> 30	> 30	> 30	> 30	> 30	> 30	–	C=C[C@@]1(C)CC(=O)[C@]2(O)[C@@]3(C)[C@@H](O)CCC(C)(C)[C@@H]3[C@H](OC(=O)CCN(C)C)[C@H](OC(C)=O)[C@@]2(C)O1
> 30	> 30	> 30	> 30	> 30	> 30	> 30	> 30	> 30	> 30	–	CCC(=O)OCC(=O)[C@@]1(OC(=O)CC)[C@@H](C)C[C@H]2[C@@H]3CCC4=CC(=O)C=C[C@]4(C)[C@@]3(F)[C@@H](O)C[C@@]21C [BETAMETHASONE DIPROPIONATE]
> 30	> 30	–	> 30	> 30	> 30	> 30	> 30	> 30	> 30	–	COc1cc(OC)c(C(=O)CCCN2CCCC2)c(OC)c1 [BUFLOMEDIL]
> 30	> 30	> 30	> 30	> 30	> 30	> 30	> 30	> 30	> 30	–	CCOC(=O)NNc1ccc(N(CC)CC(C)O)nn1 (stereo unspecified) [CADRALAZINE]
> 30	–	–	> 30	> 30	> 30	> 30	> 30	> 30	–	> 30	C=CC1=C(C(=O)O)N2C(=O)[C@@H](NC(=O)/C(=N\OCC(=O)O)c3csc(N)n3)[C@H]2SC1 [CEFIXIME]
> 30	> 30	> 30	> 30	> 30	> 30	> 30	> 30	> 30	> 30	–	CCC(C)(Oc1ccc(C2(c3ccc(OC(C)(CC)C(=O)O)cc3)CCCCC2)cc1)C(=O)O (stereo unspecified) [CLINOFIBRATE]
> 30	3.5	> 30	> 30	> 30	> 30	> 30	11	> 30	> 30	–	CCCCC[C@H](O)/C=C/[C@H]1[C@H](O)CC(=O)[C@@H]1C/C=C\CCCC(=O)O [DINOPROSTONE]
> 30	> 30	> 30	> 30	> 30	> 30	> 30	> 30	> 30	> 30	–	CC(C)c1cc2c(cc1S(=O)(=O)O)[C@@]1(C)CCC[C@@](C)(C(=O)O)[C@@H]1CC2 [ECABET]
> 30	> 30	> 30	> 30	> 30	> 30	> 30	> 30	> 30	> 30	–	CCCN(CC)C(CC)C(=O)Nc1c(C)cccc1C (stereo unspecified) [ETIDOCAINE]
> 30	> 30	12	> 30	> 30	> 30	> 30	18	> 30	> 30	–	Clc1ccc(C(Cn2ccnc2)OCc2ccc(Sc3ccccc3)cc2)c(Cl)c1 (stereo unspecified) [FENTICONAZOLE]
> 30	> 30	> 30	> 30	> 30	> 30	> 30	> 30	> 30	> 30	–	Nc1nc(F)nc2c1ncn2[C@@H]1O[C@H](COP(=O)(O)O)[C@@H](O)[C@@H]1O [FLUDARABINE PHOSPHATE]
> 30	> 30	> 30	> 30	> 30	> 30	> 30	4.2	> 30	> 30	–	CC(C)OC(=O)C(C(=O)OC(C)C)=C1SC=CS1 [MALOTILATE]
> 30	> 30	> 30	> 30	> 30	> 30	> 30	13	> 30	> 30	–	CN(c1nccc(=O)[nH]1)C1CCN(c2nc3ccccc3n2Cc2ccc(F)cc2)CC1 [MIZOLASTINE]
–	–	–	–	–	> 30	–	24	–	> 30	> 30	C[n+]1ccccc1/C=N/O [PRALIDOXIME]
> 30	> 30	> 30	> 30	> 30	> 30	> 30	> 30	> 30	> 30	–	CCN(CC)CC(=O)Oc1ccc(NC(C)=O)cc1 [PROPACETAMOL]
–	> 30	–	> 30	> 30	> 30	> 30	> 30	> 30	> 30	–	CC(C)(C)NC[C@H](O)COc1nsnc1N1CCOCC1 [TIMOLOL]
–	> 3	–	–	–	–	–	27	> 3	–	–	COc1cc2nccc(Oc3ccc(NC(=O)Nc4cc(C)on4)c(Cl)c3)c2cc1OC [TIVOZANIB]
> 30	> 30	–	> 30	> 30	> 30	> 10	> 30	> 30	–	–	CN1[C@@H]2CC[C@H]1C[C@@H](OC(=O)c1c[nH]c3ccccc13)C2 [TROPISETRON]

Compound	AC50 [1] [µM]	AC50 (Thromboxane A2 receptor) [µM]	AC50 [2] [µM]	AC50 (Adenosine receptor A1) [µM]	AC50 [3] [µM]	AC50 [4] [µM]	AC50 [5] [µM]	AC50 [6] [µM]	AC50 (Adenosine receptor A2a) [µM]	AC50 [7] [µM]	AC50 [8] [µM]
C[C@@H]1C[C@H]2[C@@H]3C[C@H](F)C4=CC(=O)C=C[C@]4(C)[C@@]3(F)[C@@H](O)C[C@]2(C)[C@H]1C(=O)CO [DIFLUCORTOLONE]	–	–	–	–	–	–	–	> 30	–	–	–
CC[N+]1(C)CCCC(OC(=O)C(O)(c2ccccc2)c2ccccc2)C1 (stereo unspecified) [PIPENZOLATE]	> 30	> 30	> 30	> 30	> 30	> 30	> 30	> 30	> 30	> 30	–
